Laboratory results taken from patent US20220168430A1, “THERAPEUTIC METHODS FOR TREATING HEPATITIS B” (priority 2019, published 2022).
Like-named read-outs stand apart in the source and are kept apart here.

Tests used:
HBV rcDNA = assay: microbe, parasite or virus in culture; assay type: cell-based, HBV genotype D, serotype ayw; HepG 2.2.15; details: for SYNERGY PLOT (99%) Bonferroni Adj. 55%: TDF 0 μM, Cmpd 1 by row r37-r42: 0.405, 0.135, 0.045, 0.015, 0.005, 0 μM
Procedure: In vitro triple agent combination studies were conducted using the method of Prichard and Shipman 1990 (Prichard M N, Shipman C, Jr. 1990. Antiviral Res 14:181-205). The HepG 2.2.15 cell line was derived from HepG2 cells with constitutive expression of HBV (genotype D, serotype ayw) (Sells M A, Chen M L, Acs G. 1987. Proc Natl Acad Sci USA 84:1005-9). […] The plates were incubated for 7 days in a humidified incubator at 37° C. and 5% CO2. The level of rcDNA present in the culture supernatants was measured using a Quantigene 2.0 bDNA assay kit (Affymetrix, Santa Clara, Calif.) with HBV specific custom probe set (genotype D ayw) and according to the manufacturer's instructions and read using a luminescence plate reader and the relative luminescence units (RLU) data generated from each well was calculated as % inhibition of the untreated control wells and analyzed using the MacSynergy II program to determine whether the combinations were synergistic, additive or antagonistic using the interpretive guidelines established by Prichard and Shipman (Prichard M N, Shipman C, Jr. 1990. […] Concurrently, in each experiment, the effect of inhibitor combinations on cell viability was assessed in triplicates that were used to determine the ATP content as a measure of cell viability using the Cell-Titer Glo reagent (Promega, Madison, Wis.) as per the manufacturer's instructions.

HBsAg [1] = assay: Liver HBsAg by ELISA in AAV-HBV mouse model (Example 18); assay type: in vivo, C57BL/6 mice; HBV serotype Ayw, genotype D; details: Study Day 42; siRNA 3 mg/kg s.c. Days 0 and 28, encapsidation inhibitor 100 mg/kg and/or TDF 1 mg/kg oral daily Days 0-41; group mean ± SEM, n=6
Procedure: (§1) Prior to treatment start, 1×10^11 viral genomes of an adeno-associated virus (AAV) vector carrying a 1.3-fold overlength copy of an HBV genome (serotype Ayw, genotype D) was administered to C57BL/6 mice via intravenous injection. Introduction of this viral vector results in the expression of HBV DNA and HBV surface antigen (HBsAg) amongst other HBV products. Serum HBV DNA levels in mice was measured using a quantitative polymerase chain reaction (QPCR) assay, HBsAg in serum and liver of mice was measured using an enzyme-linked immunosorbent assay (ELISA), and anti-HBsAg antibodies were measured using ELISA.
(§2) Treatment effects on serum HBV DNA were determined by collecting a small amount of blood on Days 0 (pre-treatment) and 14, as well as from terminal blood collections at Day 42. Treatment effects on HBsAg in serum and liver were determined from terminal sample collections at Day 42.
(§3) Any individual animal samples measured to fall below assay lower limit of quantitation (LLOQ) were reported as the LLOQ value.

HBV DNA [2] = assay type: in vivo, C57BL/6 mice; HBV serotype Ayw, genotype D; details: for Serum HBV DNA: group mean ± SEM, n=6
Procedure: as §1, §2, §3

HBsAg [3] = assay: microbe, parasite or virus in culture; assay type: cell-based, HBV genotype D; primary human hepatocytes; details: Hepatitis B virus
Procedure: (§4) The day PHH seeding date was defined as day 0.
(§5) The PHH were infected with 400 HBV GE/cell of HBV genotype D type HBV on day 1.
(§6) The test articles were further diluted with the culture medium to the final test concentrations.
(§7) All the test articles were further diluted 100 times with the culture medium. The final concentration of DMSO in the culture medium was […].
(§8) The compounds were tested at 7 concentrations, 3-fold dilution, in triplicate.
(§9) Four two-way combinations were performed on a 5×5 matrix, in triplicate plates. Transfection reagent was present in all wells. The culture medium containing the articles were refreshed every 1 or 2 days.
HBsAg in the culture supernatants harvested on days 8 was measured using the HBsAg/ELISA kit (Autobio) according to the manual. The samples were diluted with PBS to get the signal in the range of the standard curve. Percent inhibition of HBsAg was calculated with the formula below:
% Inh. HBsAg=[1−HBsAg quantity of sample/[…] of DMSO control]×100
(§10) Results of double combination studies were analyzed using MacSynergy II software (Prichard and Shipman, 1992).

HBV DNA [4] = assay: HBV DNA in culture supernatants of HBV-infected PHH by qPCR, single agents and double combinations (Examples 1-4); assay type: cell-based, HBV genotype D; primary human hepatocytes; details: Hepatitis B virus
Procedure: as §4, §5, §6, §7, §8, §9
DNA in the culture supernatants harvested on days 8 was isolated with QIAamp 96 DNA Blood Kit (Qiagen-51162). For each sample, 100 μl of each culture supernatant was used to extract DNA. The DNA was eluted with 180 μl of AE. HBV DNA in the culture supernatants was quantified by quatitative PCR using primers and probes outlined in Table 3. Percent inhibition of HBV DNA was calculated with the formula below:
% Inh. HBV DNA=[1−value of sample/AVG. value of Medium control]×100.
as §10

[5] = Hepatitis B virus, HepG2.2.15, read-out: ADDITIVE INHIBITION

COCCCOc1cc2c(nc1OC)-c1cc(=O)c(C(=O)O)cn1[C@H](C(C)C)C2 [Compound 2]
AVERAGE % INHIBITION (HBV rcDNA; Cmpd 1 0 μM, Cmpd 2 0.0001 μM, TAF 0 μM): 31.76%
AVERAGE % INHIBITION (HBV rcDNA; Cmpd 1 0 μM, Cmpd 2 0.0002 μM, TAF 0 μM): 43.68%
AVERAGE % INHIBITION (HBV rcDNA; Cmpd 1 0 μM, Cmpd 2 0.0004 μM, TAF 0 μM): 58.53%
AVERAGE % INHIBITION (HBV rcDNA; Cmpd 1 0 μM, Cmpd 2 0.001 μM, TAF 0 μM): 71.85%
AVERAGE % INHIBITION (HBV rcDNA; Cmpd 1 0 μM, Cmpd 2 0.002 μM, TAF 0 μM): 78.06%
AVERAGE % INHIBITION (HBV rcDNA; Cmpd 1 0 μM, Cmpd 2 0.003 μM, TAF 0 μM): 83.72%
AVERAGE % INHIBITION (HBV rcDNA; Cmpd 1 0 μM, Cmpd 2 0.007 μM, TAF 0 μM): 85.49%
AVERAGE % INHIBITION (HBV rcDNA; Cmpd 1 0 μM, Cmpd 2 0.027 μM, TAF 0 μM): 87.17%
AVERAGE % INHIBITION (HBV rcDNA; Cmpd 1 0 μM, Cmpd 2 […], TAF 0 μM): 89.05%
SYNERGY PLOT (99%) Bonferroni Adj. 55% (HBV rcDNA; Cmpd 2 0.00002 μM): 0
SYNERGY PLOT (99%) Bonferroni Adj. 55% (HBV rcDNA; Cmpd 2 0.00004 μM): 0
SYNERGY PLOT (99%) Bonferroni Adj. 55% (HBV rcDNA; Cmpd 2 0.00008 μM): 0
SYNERGY PLOT (99%) Bonferroni Adj. 55% (HBV rcDNA; Cmpd 2 0.00016 μM): 0
SYNERGY PLOT (99%) Bonferroni Adj. 55% (HBV rcDNA; Cmpd 2 0.0003 μM): 0
SYNERGY PLOT (99%) Bonferroni Adj. 55% (HBV rcDNA; Cmpd 2 0.0006 μM): 0
SYNERGY PLOT (99%) Bonferroni Adj. 55% (HBV rcDNA; Cmpd 2 0.001 μM): 0
SYNERGY PLOT (99%) Bonferroni Adj. 55% (HBV rcDNA; Cmpd 2 0.003 μM): 0
SYNERGY PLOT (99%) Bonferroni Adj. 55% (HBV rcDNA; Cmpd 2 0.005 μM): 0
AVERAGE % INHIBITION (HBV rcDNA; ETV @ 0 μM, Cmpd 2 0.0001 μM alone): 39.44%
AVERAGE % INHIBITION (HBV rcDNA; ETV @ 0 μM, Cmpd 2 0.0002 μM alone): 47.6%
AVERAGE % INHIBITION (HBV rcDNA; ETV @ 0 μM, Cmpd 2 0.0004 μM alone): 67.99%
AVERAGE % INHIBITION (HBV rcDNA; ETV @ 0 μM, Cmpd 2 0.001 μM alone): 74.24%
AVERAGE % INHIBITION (HBV rcDNA; ETV @ 0 μM, Cmpd 2 0.002 μM alone): 77.97%
AVERAGE % INHIBITION (HBV rcDNA; ETV @ 0 μM, Cmpd 2 0.003 μM alone): 83.78%
AVERAGE % INHIBITION (HBV rcDNA; ETV @ 0 μM, Cmpd 2 0.007 μM alone): 86.78%
AVERAGE % INHIBITION (HBV rcDNA; ETV @ 0 μM, Cmpd 2 0.027 μM alone): 88.04%
AVERAGE % INHIBITION (HBV rcDNA; ETV @ 0 μM, Cmpd 2 […] alone): 88.65%
inhibition at 20 pM (HBV rcDNA; [5]): 7.15%
inhibition at 40 pM (HBV rcDNA; [5]): 9.56%
inhibition at 0.00016 µM (HBV rcDNA; [5]): 36.2%
inhibition at 0.0003 µM (HBV rcDNA; [5]): 40.9%
inhibition at 0.0006 µM (HBV rcDNA; [5]): 64.5%
inhibition at 0.001 µM (HBV rcDNA; [5]): 69.8%
inhibition at 0.003 µM (HBV rcDNA; [5]): 74.5%
inhibition at 0.005 µM (HBV rcDNA; [5]): 77.5%

CC(C)OC(=O)OCOP(=O)(CO[C@H](C)Cn1cnc2c(N)ncnc21)OCOC(=O)OC(C)C.O=C(O)/C=C/C(=O)O [TDF, tenofovir disoproxil fumarate, reference compound]
Liver HBsAg (HBsAg [1]): 1.77 ± 0.03 log10 IU/mg liver protein
Serum HBV DNA (HBV DNA [2]; Day 0 (pre-treatment)): 4.31 ± 0.10 log10 copies/microliter
Serum HBV DNA (HBV DNA [2]; Day 14, siRNA 3 mg/kg s.c. Days 0 and 28, encapsidation inhibitor 100 mg/kg and/or TDF 1 mg/kg oral daily): 3.11 ± 0.15 log10 copies/microliter
Serum HBV DNA (HBV DNA [2]; Day 42, siRNA 3 mg/kg s.c. Days 0 and 28, encapsidation inhibitor 100 mg/kg and/or TDF 1 mg/kg oral daily Days 0-41): 3.58 ± 0.14 log10 copies/microliter
HBV DNA inhibition, decrease from Day 0 to Day 42 (HBV DNA [2]; serum, AAV-HBV mice, siRNA 3 mg/kg s.c. Days 0 and 28, encapsidation inhibitor 100 mg/kg and/or TDF 1 mg/kg oral daily): 0.73 log10

CC(C)OC(=O)[C@H](C)N[P@](=O)(CO[C@H](C)Cn1cnc2c(N)ncnc21)Oc1ccccc1 [TAF, tenofovir alafenamide]
EC50 (HBsAg [3]): 4.12 nM
EC50 (HBV DNA [4]): 0.083 nM
